Data set [1] relates to Monocyte. Briefly: Inhibition of healthy human monocyte migration assessed as chemotactic index at 0.01 nM after 45 mins. Type of data set: functional, cell-based.
Data set [2] has as its system Monocyte. Briefly: Inhibition of healthy human monocyte migration assessed as chemotactic index at 0.1 pM after 45 mins. Type of data set: functional, cell-based.
For data set [3], the system named is Monocyte. Briefly: Inhibition of healthy human monocyte migration assessed as chemotactic index at 0.001 to 0.00001 pM. The class given is functional, cell-based.
The test system of data set [4] is Monocyte. The experiment in a line: Inhibition of healthy human monocyte migration assessed as chemotactic index at 0.001 to 0.00001 pM after >45 mins. Type of data set: functional, cell-based.
For data set [5], the system named is Monocyte. Briefly: Inhibition of O2- radical production in zymosan-stimulated healthy human monocyte measured after 1 hr at 37 degC. The class given is functional, cell-based.
Data set [6] concerns Monocyte. Briefly: Inhibition of O2- radical production in zymosan-stimulated healthy human monocyte measured after 45 mins at 37 degC. Type of data set: functional, cell-based.
Data set [7] deals with Monocyte. The experiment in a line: Inhibition of O2- radical production in zymosan-stimulated healthy human monocyte assessed as increase in H2O production after 1 hr at 37 degC. The class given is functional, cell-based.
For data set [8], the system named is Monocyte. Briefly: Inhibition of O2- radical production in zymosan-stimulated healthy human monocyte assessed as inhibition H2O2 production after 1 hr at 37 degC. The class given is functional, cell-based.
Data set [9] is described as follows: Cytotoxicity against human monocytes measured by LDH activity. The class given is cell-based. As to conditions: monocyte.
For data set [10], the system named is Monocyte. Briefly: Inhibition of healthy human monocyte migration assessed as chemotactic index at 100 nM after 45 mins. Type of data set: functional, cell-based.

Each structure is given as a SMILES string. The source made the active and inactive calls. The rule behind the calls is not given here.

Experimental findings from ChEMBL document CHEMBL1159242, “Studies on the inhibitory effects of caffeoylquinic acids on monocyte migration and superoxide ion production” (J Nat Prod, 1995) are described below.

`O=C(/C=C/c1ccc(O)c(O)c1)O[C@@H]1C[C@](O)(C(=O)O)C[C@@H](OC(=O)/C=C/c2ccc(O)c(O)c2)[C@H]1O`: the outcome with Monocyte [1], in the data set on Monocyte [2], in the data set with Monocyte [3], in the data set with Monocyte [6], with Monocyte [7] and in the data set on Monocyte [8] was Active. The outcome in the data set with Monocyte [4] was inactive. Also, the Activity entry in the data set with Monocyte [5] is “Dose-dependent effect”; in [9], “Non-toxic”.
Regarding `O=C(/C=C/c1ccc(O)c(O)c1)O[C@@H]1C[C@](O)(C(=O)O)C[C@@H](OC(=O)/C=C/c2ccc(O)c(O)c2)[C@H]1OC(=O)/C=C/c1ccc(O)c(O)c1`, the Activity result in data set [9] is reported as “Non-toxic”.
In the case of `O=C(/C=C/c1ccc(O)c(O)c1)O[C@H]1[C@H](O)C[C@](O)(C(=O)O)C[C@H]1OC(=O)/C=C/c1ccc(O)c(O)c1`, in the data set on Monocyte [10], the outcome was inactive. In addition, the Activity result in the data set with Monocyte [5] is “Dose-dependent effect”; in [9] it was “Non-toxic”.
